Molecules are shown by their SMILES.

Series [1] can be described thus: Particle (droplet) size analysis of aerosol drugs. Type of series: physicochemical. As to conditions: 60 mg/mL; TOB in 0.225% saline, RFX in 100% DMSO; nebulizer aerosol, Malvern Spraytec. As to the method:
Particle Size Analysis of Aerosol Drugs. Droplet size analysis of drugs used for aerosol therapy was conducted by Spray Analytics (Lincolnshire, Ill.). Samples of TOB in 0.225% saline and RFX in 100% DMSO at concentrations of 60 mg/mL for both were prepared and submitted along with nebulizer unit used for animal experiments. A Malvern Spraytec was used for analysis with the tested product sprayed horizontally at less than 5 cm from the detector beam. The samples were measured in triplicates for 20-30 seconds of stable operation of the nebulizer. Refractive index and absorption values used were that of DMSO for RFX and water for TOB.
The potential adverse effects of using DMSO were first assessed by nebulizing DMSO alone to a group of C57BL/6 mice (n=8). This type of mice was used due to their natural resistance against infection based on our previous studies. […] Next, the delivery of both RFX and TOB via nebulization was optimized. […] To determine the dosage of each drug received by the mice, the lungs were homogenized and drug concentrations of TOB and RFX were determined via ELISA and HPLC, respectively. […] The droplet size for both TOB and RFX were determined to be identical with the average droplet size for TOB and RFX being 5.07 μm and 5.02 μm, respectively.

A further series deals with P. aeruginosa biofilms. The experiment in a line: Viable cell assay in preformed biofilms (MTT). Type of series: cell-based, Pseudomonas aeruginosa. Conditions: PAO1, CF001, CF010; 24 h biofilms treated at 3×MIC. As to the method: FIGS. 3A-3B include graphs showing biofilm and cell viability reduction from treatment with TOB and/or RFX, where (FIG. 3A) biofilms were grown for 24 h in a 96-well plate and then treated with TOB, RFX, or TOB and RFX at a concentration of 3×MIC, or where (FIG. 3B) biofilms were grown for 24 h in a 96-well plate and then treated with TOB, RFX, or TOB and RFX at concentration of 3×MIC. Two-way ANOVA analysis was used with statistical significance set as a P value of <0.01 (****, P<0.0001; **, P<0.001; *, P<0.01).
Viable Cell Assay. Viable cell counts were done to determine the reduction of viable cells in preformed biofilms treated with TOB and/or RFX. Briefly, following biofilm reduction protocol, biofilms were grown in a flat bottom 96-well microplate (Corning) using 200 μl LB of 1.0-1.5×10^5 inoculum of lab and clinical strains of non-mucoid and mucoid P. aeruginosa for 24 h at 37° C. After incubation, the media was removed, and plate was washed with PBS twice. New LB media containing 1-5×MIC90 of TOB and/or RFX was added to the plate in a checkerboard pattern. After 24 h growth at 37° C., the media was removed and replaced with methylthiazoltetrazolium (MTT; Sigma). After 1 h incubation, DMSO was added and plates were read via OD at 570 nm using SpectraMax i3x plate reader to determine viable cell differences between TOB and/or RFX. […]

The test system of series [2] is clinical mucoid isolate from a CF patient. The experiment in a line: Further test of screen hits on a clinical mucoid isolate. Type of series: cell-based, Pseudomonas aeruginosa. As to conditions: compared with the other screen hits of Table 2.
In series [3] the test system is promoter PalgD of the alginate biosynthetic operon. The experiment in a line: PalgD-lacZ promoter reporter (β-galactosidase) activity. Type of series: cell-based, Pseudomonas aeruginosa. Conditions: PAO581, CF001, CF010; MIC1, MIC10, MIC30, MIC50 on PIA, 37° C., 24 h. As to the method: FIGS. 2A-2C include graphs showing RFX versus TOB mediated inhibition of the promoter PalgD activity of the alginate biosynthetic operon in laboratory and clinical isolates of P. aeruginosa. The β-galactosidase activity of PalgD was measured using the pLP170-PalgD-lacZ reporter construct in PAO581 (FIG. 2A), CF001 (FIG. 2B), and CF010 (FIG. 2C) grown on PIA plates with increasing concentrations of RFX or TOB (MIC1, MIC10, MIC30, MIC50) at 37° C. for 24 h. Relative expression mean values are shown ±SE of triplicate determinations. Two-way ANOVA was used to determine statistical significance set at a P value of <0.01 (****, P<0.0001).
While RFX inhibits alginate production, additional experiments were conducted to determine whether the inhibition was specific to alginate or whether it was a global suppression of transcription. To test this, the promoter reporter constructs PalgD_lacZ in pLP170 were used to quantify the promoter activity of the alginate biosynthetic operon PalgD. A promoter-less empty vector pLP170-lacZ was used as a negative control. Using the β-galactosidase reporter activity, the activity of PalgD in PAO581 was quantified (FIG. 2A), and two mucoid isolates (CF001 and CF010) from CF patients.

A short description of series [4]: Solubility of RFX in nebulization solvents. Type of series: physicochemical. As to the method: As treatment for traveler's diarrhea, RFX is a drug optimized for oral use. For RFX to be useful as a treatment for CF patients, it was determined whether RFX could be delivered to the lungs through nebulization. Nebulizing RFX was initially unsuccessful and more difficult than presumed. […] RFX was not soluble in water-based solutions, but was soluble in dimethyl-sulfoxide (DMSO) and ETOH (ethanol) in small volumes. […] However, 100% DMSO could be used to retain RFX in solution and deliver to the lungs as noted by HPLC data.

In series [5] the test system is P. aeruginosa PAO581 (PAO1mucA25). The experiment in a line: NIH drug library screen for inhibition of growth, mucoidy and PalgD-lacZ colour. Type of series: cell-based, Pseudomonas aeruginosa.
The subject of the next series is P. aeruginosa strains. The experiment in a line: MIC and synergy testing (checkerboard/isobologram) of RFX and TOB. Type of series: cell-based, Pseudomonas aeruginosa. As to conditions: strain CF003, NM.

On to `NC[C@H]1O[C@H](O[C@H]2[C@H](O)[C@@H](O[C@H]3O[C@H](CO)[C@@H](O)[C@H](N)[C@H]3O)[C@H](N)C[C@@H]2N)[C@H](N)C[C@@H]1O` [TOB, tobramycin], for which, in series [1], the average droplet size turned out to be 5.07 μm. Moreover, the “viable cells in a preformed biofilm” value with P. aeruginosa biofilms is reported as “significantly reduced the number of viable cells”.
Regarding `CO[C@H]1/C=C/O[C@@]2(C)Oc3c(C)c(O)c4c(O)c(c5c(nc6cc(C)ccn65)c4c3C2=O)NC(=O)/C(C)=C\C=C\[C@H](C)[C@H](O)[C@@H](C)[C@@H](O)[C@@H](C)[C@H](OC(C)=O)[C@@H]1C` [RFX, rifaximin], the “inhibition of growth and mucoidy” value in series [2] is “most effective drug to inhibit the growth and mucoidy”. Besides, the “PalgD promoter activity (β-galactosidase reporter)” value in series [3] is “more pronounced effect on promoter activity than TOB”. Also, the solubility entry was “partially or fully dissolve” in series [4] (in 20%, 40%, and 80% DMSO in PBS, came out of solution on nebulization); “readily soluble” in series [4] (in DMSO); “did not dissolve” in series [4] (in PBS or saline); “soluble” in series [4] (in dimethyl-sulfoxide (DMSO) and ETOH (ethanol) in small volumes); “only sparingly soluble” in series [4] (in water); “not soluble” in series [4] (in water-based solutions). Further, the “Growth 2 μM” value in series [5] (drug at 2 μM, PAO581 on PIA) is listed as “Reduced”. In series [5] (drug at 2 μM, PAO581 with pLP170-PalgD-lacZ on PIA + X-gal), the “Mucoidy 2 μM” value is reported as “Reduced”. In addition, the “Color 2 μM” value in series [5] (drug at 2 μM, X-gal colour of PalgD-lacZ reporter, 'Light' wraps to 'Light Blue') was “Clear”. Further, in series [5] (drug at 10 μM, PAO581 on PIA), the “Growth 10 μM” value is reported as “Inhibited”. Besides, the “Growth 50 μM” value in series [5] (drug at 50 μM, PAO581 on PIA) is “Inhibited”. Moreover, in the series with P. aeruginosa strains, the “FIC RFX” value amounted to 0.25. Besides, the “MIC RFX in Combination” value in the series with P. aeruginosa strains (in combination with TOB) came to 1. Also, the average droplet size in series [1] is 5.02 μm.

Source of the values: patent US10993935B2, “Compositions and methods for treatment of lung infections” (priority 2018, dated 2021).
